From PMC3582038 (Bioorganic & medicinal chemistry, 2012)
≈ marks a conversion by molar mass, not a printed value. Marks after values point to notes of the source that are not given here.

Columns and labels:
E. coli K12 ΔtolC = assay type: cell-based; conditions: efflux pump deficient
[1] = In vivo pharmacokinetics in rats; conditions: for half-life: male, Sprague-Dawley, rat, plasma, iv, 10 mg/kg; for toxicity in both administration modes: IV 10 mg/kg and PO 100 mg/kg; for unbound peak plasma concentration as multiple of the MIC: peak plasma concentration converted to unbound; for fe (fraction of dose excreted unchanged in urine): mean (SD)
[2] = system: Strep. pyogenes ATCC 700294; assay: Antibacterial spectrum MIC, S. pyogenes; assay type: cell-based; conditions: Streptococcus pyogenes, ATCC700294, read-out: MIC S. pyogenes
[3] = rats, based on a 10 mg/kg IV dose; ref [21],[22] (Linezolid), [23],[24] (Ofloxacin); cited from earlier work
M. tuberculosis = assay: Antituberculosis MIC, microbroth dilution; assay type: cell-based; conditions: M. tuberculosis MIC relative to compound 11

Compound | MIC E. coli ΔtolC (E. coli K12 ΔtolC) | toxicity in both administration modes ([1]; rats) | unbound peak plasma concentration as multiple of the MIC ([1]; rats, IV 10 mg/kg) | also measured
O=[N+]([O-])c1ccc(C2=NOC(c3ccc(N4CCOCC4)nc3)C2)o1 (stereo not shown) [Compound 7, 4-(5-(3-(5-Nitrofuran-2-yl)-4,5-dihydroisoxazol-5-yl)pyridin-2-yl)morpholine] | 6.25 µg/mL (≈ 18.2 µM) | non-toxic | 9.8 times the MIC | half-life [1]: 36.6 to 43.2 min; fe (fraction of dose excreted unchanged in urine) ([1]; rats): 0.021 (0.01) %
CN1CCN(c2ccc(C3CC(c4ccc([N+](=O)[O-])o4)=NO3)cc2)C(=O)C1 (stereo not shown) [Compound 15, 4-methyl-1-(4-(3-(5-nitrofuran-2-yl)-4,5-dihydroisoxazol-5-yl)phenyl)piperazin-2-one] |  |  | 0.71 times the MIC | half-life [1]: 36.6 to 43.2 min; toxicity observed after IV dosing ([1]; rats, IV 10 mg/kg): seizures and death in one animal; deaths after oral administration ([1]; rats, PO 100 mg/kg): No animals died; fe (fraction of dose excreted unchanged in urine) ([1]; rats): 0.68 (0.44) %
O=C1COCCN1c1ccc(C2CC(c3ccc([N+](=O)[O-])o3)=NO2)cn1 (stereo not shown) [Compound 19, 4-(5-(3-(5-nitrofuran-2-yl)-4,5-dihydroisoxazol-5-yl)pyridin-2-yl)morpholin-3-one] |  |  |  | MIC [2]: 1000 µg/mL (≈ 2800 µM)
O=[N+]([O-])c1ccc(C2=NOC(c3ccc(N4CCCCC4)cc3)C2)o1 (stereo not shown) [Compound 1] |  | non-toxic | 4.6 times the MIC | 
O=[N+]([O-])c1ccc(C2=NOC(c3ccc(N4CCOCC4)cc3)C2)o1 (stereo not shown) [Compound 6, 4-(4-(3-(5-Nitrofuran-2-yl)-4,5-dihydroisoxazol-5-yl)phenyl)morpholine] |  | non-toxic | 5.0 times the MIC | 
O=[N+]([O-])c1ccc(C2=NOC(c3ccc(N4CCOCC4)c(F)c3)C2)o1 (stereo not shown) [Compound 8, 4-(2-Fluoro-4-(3-(5-nitrofuran-2-yl)-4,5-dihydroisoxazol-5-yl)phenyl)morpholine] | 6.25 µg/mL (≈ 17.3 µM) |  |  | 
CC1COc2c(N3CCN(C)CC3)c(F)cc3c(=O)c(C(=O)O)cn1c23 (stereo not shown) [Ofloxacin] |  |  |  | AUCo0-∞ [3]: 6.1–11.8 ^* hr mg/L
CN1CCN(c2ccc(C3CC(c4ccc([N+](=O)[O-])o4)=NO3)cn2)C(=O)C1 (stereo not shown) [Compound 16, 4-methyl-1-(5-(3-(5-nitrofuran-2-yl)-4,5-dihydroisoxazol-5-yl)pyridin-2-yl)piperazin-2-one] | 6.25 µg/mL (≈ 16.8 µM) |  |  | 
O=[N+]([O-])c1ccc(C2=NOC(c3ccc(N4CC[S+]([O-])CC4)cc3)C2)o1 (stereo not shown) [Compound 12, 4-(4-(3-(5-nitrofuran-2-yl)-4,5-dihydroisoxazol-5-yl)phenyl)thiomorpholine 1-oxide] |  |  |  | fold weaker MIC value than 11 (M. tuberculosis): 8 fold
